Test results reported in ChEMBL document CHEMBL4304740, “Structure-Based Design of Selective β-Site Amyloid Precursor Protein Cleaving Enzyme 1 (BACE1) Inhibitors: Targeting the Flap to Gain Selectivity over BACE2” (J Med Chem, 2019).

Columns and labels:
in vitro [1] = details: mouse, liver microsomes
physchem = details: octanol/phosphate buffered saline, pH 7.4
in vitro [2] = details: human, liver microsomes
in vivo = details: Crl:CD(ICR), mouse, brain/plasma, po, 30 mg/kg

remaining at 0.5 h, 0.1 µM (in vitro [1]) [%] | logD (physchem) | remaining at 0.5 h, 0.1 µM (in vitro [2]) [%] | Kp (in vivo) | Compound
4.5 | 2.3 | 27 | 0.55 | C[C@]1(c2cc(NC(=O)c3cnc(OCF)cn3)ccc2F)N=C(N)SCC12CCC(F)(F)CC2
5 | 1.2 | 51 | – | C[C@]1(c2cc(NC(=O)c3cnc(OCF)cn3)ccc2F)N=C(N)SCC12CCOCC2
